Assay [1] addresses T1, 5-HT1A receptor (Rattus norvegicus, UniProt P19327).
T1 sequence (P19327 1-422): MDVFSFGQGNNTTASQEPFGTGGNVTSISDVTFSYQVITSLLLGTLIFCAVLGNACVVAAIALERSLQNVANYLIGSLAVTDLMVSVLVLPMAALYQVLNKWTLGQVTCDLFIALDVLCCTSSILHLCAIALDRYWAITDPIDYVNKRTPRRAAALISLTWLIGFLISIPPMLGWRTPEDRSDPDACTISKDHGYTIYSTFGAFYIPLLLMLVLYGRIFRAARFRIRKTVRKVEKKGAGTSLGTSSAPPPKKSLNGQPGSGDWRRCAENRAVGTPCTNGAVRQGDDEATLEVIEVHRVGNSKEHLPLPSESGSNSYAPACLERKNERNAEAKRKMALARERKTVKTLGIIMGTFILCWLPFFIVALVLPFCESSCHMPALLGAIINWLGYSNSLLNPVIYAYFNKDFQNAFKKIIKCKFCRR
In words: 5-HT1A receptor binding affinity in rat hippocampal membrane homogenate. Further details: in rat hippocampal membrane homogenate; from tissue; host or cells: rat hippocampal membrane homogenate. The following applies: for IC50: rat hippocampal membrane homogenate; for Ratio 5HT1A / α1 (binding selectivity): ratio of 5-HT1A binding to α1 binding. The protocol: The compounds were tested for 5-HT1A binding affinity (column 2) in rat hippocampal membrane homogenate by the method of B. S. Alexander and M. D. Wood, J. Pharm. Pharmacol., 1988, 40, 888-891.

For another assay, the target named is α1 receptor. In words: α1 receptor binding affinity. The protocol:
The compounds were tested for α1 binding affinity (column 3) by the procedure of A. L. Marrow et al, Mol. Pharmacol., 1986, 29, 321.

The target of assay [2] is T1, 5-HT1A receptor. In words: Oral 5-HT1A receptor antagonist activity: antagonism of 8-OH-DPAT syndrome in rats. The assay is classed as in vivo. As for the experimental part: 5-HT1A receptor antagonist activity (columns 5 and 6) is assessed by the ability of the selective 5-HT1A receptor agonist, 8-OH-DPAT, to induce the `8-OH-DPAT syndrome` in rats characterised by extended flat body posture, forepaw treading and hyperlocomotion. The 8-OH-DPAT syndrome is scored as present (definite syndrome response) or absent (equivocal or no syndrome response) during the period 0-5 min following intravenous (i.v.) administration of the test agonist via a lateral tail vein.
A range of doses, on a logarithmic scale and encompassing the expected ED50, were chosen for the test agonist following preliminary evaluation. […]
Test antagonists were administered orally (p.o.) 60 min, before i.v. administration of 8-OH-DPAT. ED50 values for 8-OH-DPAT were determined for the different pretreatment groups using the sequential up/down procedure as described above.
The response to the selective 5-HT1A receptor agonist, 8-OH-DPAT, is represented as an ED50 value for induction of the 8-OH-DPAT syndrome, which is determined using the sequential up/down analysis following intravenous administration. 5-HT1A antagonist activity is determined by the ability of the test compound to antagonise the response to 8-OH-DPAT, i.e. to increase the ED50 for induction of the 8-OH-DPAT syndrome compared with vehicle pretreatment. […]

Take `C[C@H](CN1CCN(c2cccc3[nH]ccc23)CC1)N(C(=O)C1CCCCC1)c1ccccn1` [Compound A1, (R)-N-(1-methyl-2-(4-indolyl-1-piperazinyl)ethyl)-N-(2-pyridyl)-cyclohexanecarboxamide]: at 5-HT1A receptor [1], the IC50 came out at 4.3 nM and the “Ratio 5HT1A / α1 (binding selectivity)” value turned out to be 564.4.

Take `C[C@H](CN(C(=O)C1CCCCC1)c1ccccn1)N1CCN(c2cccc3[nH]ccc23)CC1` [Compound A2, (R)-N-(2-methyl-2-(4-indolyl-1-piperazinyl)ethyl)-N-(2-pyridyl)-cyclohexanecarboxamide]: on 5-HT1A receptor [1], the IC50 was found to be 6.8 nM and the “Ratio 5HT1A / α1 (binding selectivity)” value was found to be 142.5.

Take `O=C(C1CCCCC1)N(CCN1CCN(c2cccc3[nH]ccc23)CC1)c1ccccn1` [Compound A3]: on α1 receptor, the IC50 came out at 1020 nM. Moreover, the “5-HT1A antagonist Ratio (ED50 antagonist @ 3mg/kg po)/ED50 vehicle” value at 5-HT1A receptor [2] (ED50 of 8-OH-DPAT (i.v.) after test compound 3 mg/kg p.o. divided by ED50 after vehicle, rats) is 34.4. On 5-HT1A receptor [2] (oral, compared to compounds of EP-A-512755), the “5-HT1A antagonist oral activity (in words)” value is on record as “surprising increase in oral activity as 5-HT1A antagonists”. For the same compound, on 5-HT1A receptor [1], the “5-HT1A binding affinity (in words)” value is given as “good 5-HT1A binding affinity”, the 50% inhibitory concentration (IC50) turned out to be 3.2 nM and the “Ratio 5HT1A / α1 (binding selectivity)” value came out at 317.5. Also, the “5-HT1A/α1 selectivity (in words)” value on 5-HT1A receptor [1] (binding affinity at 5-HT1A compared to α1 receptors) is “good”.

By IC50 is commonly meant the midpoint of a concentration-inhibition curve.

The record behind these values is US5723464A, “Piperazine derivatives” (American Home Products Corporation, priority 1994, dated 1998).
